# Test results reported in PMC7392643, “Antibiotic fidaxomicin is an RdRp inhibitor as a potential new therapeutic agent against Zika virus” (BMC Medicine, 2020).
# Entries after “also recorded” stand apart in the source; their conditions may differ.
# How the values were obtained:
# ZIKV NS5 polymerase = biological target: T1, ZIKV NS5 polymerase (Zika virus, UniProt A0A024B7W1); assay: Polymerase activity assay (non-radioactive primer extension); assay type: biochemical; details: NS5 20 nM, Primer/Template 10 nM, 2 h at 37 °C, quantified by amount of RNA products; read-out: IC50 of RdRp-catalyzed RNA synthesis
# T1 construct: NS5 (amino acids 1 to 903); His tag (8x histidine) (N); made in house; host or cells: Escherichia coli (Rosetta)
# Experimental: ZIKV NS5 polymerase activity was determined using a primer extension reaction with a fluorescently labeled RNA primer/RNA template complex (P/T) as described by Lu et al.. Briefly, fluorescently labeled oligonucleotide primer (Cy5-RNA) and unlabeled RNA template were mixed and then slowly cooled down for annealing. A typical primer extension reaction was performed by ZIKV NS5 polymerase at various concentrations, followed by incubation for 2 h at 37 °C. To determine the inhibitory activity of fidaxomicin, the polymerase reactions were initiated by addition of fidaxomicin at gradient concentrations ranging between 0 and 200 μM. The products were detected by denaturing polyacrylamide gel electrophoresis (Urea PAGE), and the results were scanned using an Odyssey infrared imaging system (LI-COR Biosciences, Lincoln, NE). The images were analyzed, and proper RNA bands were quantified using Image J software version 1.52a (NIH, Bethesda, MD, USA).
# [1] = system: STAT2 degradation induced by NS5; assay: Western blotting of STAT2 in 293T cells transfected with ZIKV NS5; assay type: cell-based, human
# Experimental: (§1) Tissue specimens obtained from mice or cells were lysed with RIPA lysis buffer (Millipore, Bedford, MA) containing a cocktail of protease and phosphatase inhibitors (Sigma-Aldrich, St. Louis, MO, USA). Protein concentrations were measured with a bicinchoninic acid (BCA) protein assay (Thermo Fisher Scientific, Rockford, IL, USA). Protein samples were separated by sodium dodecyl sulfate-polyacrylamide gel electrophoresis (SDS-PAGE) and transferred onto a polyvinylidene difluoride (PVDF) membrane. Non-specific antibody binding sites were blocked with 5% non-fat milk in Tris-buffered saline (TBS) (20 mM Tris-HCl [pH 7.6], 135 mM NaCl, and 0.1% Tween 20) for 1 h at room temperature and then incubated with the following primary antibodies: anti-STAT2 (1:1000, sc166201, Santa Cruz Biotechnology, Santa Cruz, CA, USA), anti-ZIKV E (1:1000, BF-1176-56, BioFront Technologies, Tallahassee, USA), anti-ZIKV NS5 (1:1000, BF-6A1-100UG, BioFront), and anti-ZIKV NS3 (1:1000, GTX133309, GeneTex, Alton Pkwy, Irvine, CA, USA). Anti-GAPDH (1:2000, ab181602, Abcam, Cambridge, MA, USA) or mouse anti-GAPDH (1:1000, ab9484, Abcam) was used as a loading control. […] The relative protein level was quantified by densitometry and normalized to GAPDH or mGAPDH level using Image J software (NIH, Bethesda, MD, USA).
# DENV2 (NGC) = assay: In vitro anti-DENV assay, RT-qPCR; assay type: cell-based, Dengue-2 virus; details: Dengue virus
# [2] = From the text: a. […] Data are expressed as mean ± SD. WBC: white blood cells; Lymph: lymphocytes; Mon: monocytes; Gran: granulocytes; RBC: red blood cells; HGB: hemoglobin concentration; HCT: hematocrit; MCV: mean corpuscular volume; MCH: mean corpuscular hemoglobin; MCHC: mean corpuscular hemoglobin concentration; RDW: red blood cell distribution width; PLT: platelets; MPV: mean platelet volume; PDW: platelet distribution width.
# a. […] Data are expressed as mean ± SD. ALT: alanine aminotransferase; AST: aspartate aminotransferase; T-BIL: total bilirubin; ALB: albumin; γ-GT: γ-glutamyltransferase; ALP: alkaline phosphatase; TBA: total bile acid; BUN: blood urea nitrogen; UA: uric acid; CR: creatinine; T-CHO: total cholesterol; TG: triglyceride.
# a. […] Data are expressed as mean ± SD.
# ZIKV = assay: Oral administration test in ZIKV-infected mice; assay type: in vivo; details: 225 mg/kg, vs vehicle
# Experimental: Fig. S4. Oral administration test for the antiviral efficacy of fidaxomicin in vivo. a Schematic illustration of the animal experimental design for the oral administration test (n=10 animals per group). b Kaplan–Meier survival of ZIKV-infected mice treated with fidaxomicin at the dosage of 225mg/kg. c Body weight changes were recorded daily for ZIKV-infected mice treated with fidaxomicin at the dosage of 225mg/kg or with control delivery vehicle. d Tissue viral loads in the brains of ZIKV-infected mice were determined by RT-qPCR (P value, compared to vehicle control).
# ZIKV (ZG-01) = assay: Western blotting of ZIKV proteins in infected SNB19 cells; assay type: cell-based, Zika virus
# Experimental: as §1
# [3] = set-up: method as in PMID 22752858; details: rats; cited from earlier work
# in vitro = details: African green monkey
# Experimental: Cell viability was detected by the 3-(4,5-dimethyl-2-thiazolyl)-2,5-diphenyl-2H-tetrazolium bromide (MTT) assay according to a previously described method [48]. Briefly, cells were seeded in 96-well plates at a density of 1 × 10^4 cells per well and cultured at 37 °C for 24 h, followed by exposure to the serially diluted fidaxomicin or ribavirin separately for 48 h. Cell survival rate was determined by MTT reduction assay according to the manufacturer’s protocol (Invitrogen). The 50% cytotoxic concentration (CC50) was defined as the compound concentration required to inhibit the cell growth by 50% compared with the control assay. The assay was performed in triplicates in three independent experiments.
# [4] = in vivo, po; cited from earlier work
# T1 sequence (A0A024B7W1 2521-3423): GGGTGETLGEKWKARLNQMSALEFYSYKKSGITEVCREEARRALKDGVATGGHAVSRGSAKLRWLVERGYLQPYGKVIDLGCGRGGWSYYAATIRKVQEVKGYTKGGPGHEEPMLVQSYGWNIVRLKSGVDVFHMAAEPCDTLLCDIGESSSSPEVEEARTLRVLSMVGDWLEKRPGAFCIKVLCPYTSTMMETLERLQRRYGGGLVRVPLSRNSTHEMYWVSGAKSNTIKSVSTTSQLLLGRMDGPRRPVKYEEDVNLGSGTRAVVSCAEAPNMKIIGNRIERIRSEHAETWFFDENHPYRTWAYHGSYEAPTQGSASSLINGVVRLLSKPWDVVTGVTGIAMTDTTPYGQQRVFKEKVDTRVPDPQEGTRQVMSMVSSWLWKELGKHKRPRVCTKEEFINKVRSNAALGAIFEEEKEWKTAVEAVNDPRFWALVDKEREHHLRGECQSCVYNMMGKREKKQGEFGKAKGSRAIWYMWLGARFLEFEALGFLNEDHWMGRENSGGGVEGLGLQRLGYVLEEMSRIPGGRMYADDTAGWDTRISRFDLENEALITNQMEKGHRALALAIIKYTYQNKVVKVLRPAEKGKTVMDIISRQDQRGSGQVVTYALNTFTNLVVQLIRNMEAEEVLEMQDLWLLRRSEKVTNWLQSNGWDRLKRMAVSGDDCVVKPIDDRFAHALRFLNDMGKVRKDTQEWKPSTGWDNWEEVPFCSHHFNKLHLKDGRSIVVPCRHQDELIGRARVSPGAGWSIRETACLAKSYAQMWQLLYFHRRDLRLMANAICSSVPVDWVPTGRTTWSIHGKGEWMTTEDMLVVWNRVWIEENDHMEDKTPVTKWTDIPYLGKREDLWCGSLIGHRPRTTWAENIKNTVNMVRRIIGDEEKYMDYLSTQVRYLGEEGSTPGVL
smiles,measurement,setting,value
CCc1c(Cl)c(O)c(Cl)c(O)c1C(=O)O[C@H]1[C@H](O)[C@H](OC)[C@H](OC/C2=C\C=C\C[C@H](O)/C(C)=C/[C@H](CC)[C@@H](O[C@@H]3OC(C)(C)[C@@H](OC(=O)C(C)C)[C@H](O)[C@@H]3O)/C(C)=C/C(C)=C/C[C@@H]([C@@H](C)O)OC2=O)O[C@@H]1C [Fidaxomicin],IC50,ZIKV NS5 polymerase,10.9 µM
same,effect on STAT2 degradation in presence of NS5,[1],did not prevent the degradation of STAT2
same,EC50,"DENV2 (NGC); DENV2, A549 cells",9.9 ± 2.5 µM
same,EC90,"DENV2 (NGC); DENV2, A549 cells",18 ± 4.2 µM
same,EC50,"DENV2 (NGC); DENV2, SNB-19, SNB19 cells",6.8 ± 1.5 µM
same,EC90,"DENV2 (NGC); DENV2, SNB-19, SNB19 cells",10.6 ± 2.1 µM
same,maximum non-toxic dose,"[2]; C57BL/6J (Ifnar1-/-), mouse, in vivo, 10 days",> 200 mg/kg
same,MPV,"[2]; Ifnar1-/- C57BL/6J mice, 200 mg/kg, 10-day treatment, mean ± SD",4.95 ± 0.59 fL
same,ALB,"[2]; mouse, in vivo, 200 mg/kg",29.11 ± 5.19 g/L
same,ALP,"[2]; mouse, in vivo, 200 mg/kg",185.3±19.2 U/L
same,ALT,"[2]; mouse, in vivo, 200 mg/kg",39.1±4.22 U/L
same,AST,"[2]; mouse, in vivo, 200 mg/kg",130.74±18.3 U/L
same,BUN,"[2]; mouse, in vivo, 200 mg/kg",31.6 ± 3.54 mg/dL
same,CR,"[2]; mouse, in vivo, 200 mg/kg",17.62 ± 1.84 µmol/L
same,Gran#,"[2]; mouse, in vivo, 200 mg/kg",0.92±0.23 10^9/L
same,Gran%,"[2]; mouse, in vivo, 200 mg/kg",19.82±4.42%
same,HCT,"[2]; mouse, in vivo, 200 mg/kg",38.96±2.72%
same,HGB,"[2]; mouse, in vivo, 200 mg/kg",124.14 ± 14.36 g/L
same,Lymph#,"[2]; mouse, in vivo, 200 mg/kg",3.21±1.01 10^9/L
same,Lymph%,"[2]; mouse, in vivo, 200 mg/kg",75.75±8.94%
same,MCH,"[2]; mouse, in vivo, 200 mg/kg",14.73 ± 0.88 pg
same,MCHC,"[2]; mouse, in vivo, 200 mg/kg",302 ± 21.82 g/L
same,MCV,"[2]; mouse, in vivo, 200 mg/kg",51.61 ± 1.84 fL
same,Mon#,"[2]; mouse, in vivo, 200 mg/kg",0.16±0.07 10^9/L
same,Mon%,"[2]; mouse, in vivo, 200 mg/kg",3.75±0.94%
same,PDW,"[2]; mouse, in vivo, 200 mg/kg",16.65±0.35
same,PLT,"[2]; mouse, in vivo, 200 mg/kg",891.6±337.3 10^9/L
same,RBC,"[2]; mouse, in vivo, 200 mg/kg",7.51±1.44 10^12/L
same,RDW,"[2]; mouse, in vivo, 200 mg/kg",17.56±1.04%
same,T-BIL,"[2]; mouse, in vivo, 200 mg/kg",21.14 ± 1.87 µmol/L
same,T-CHO,"[2]; mouse, in vivo, 200 mg/kg",3.12 ± 1.33 mmol/L
same,TBA,"[2]; mouse, in vivo, 200 mg/kg",12.75 ± 1.54 µmol/L
same,TG,"[2]; mouse, in vivo, 200 mg/kg",2.11 ± 0.45 mmol/L
same,UA,"[2]; mouse, in vivo, 200 mg/kg",182.61 ± 23.8 µmol/L
same,WBC,"[2]; mouse, in vivo, 200 mg/kg",4.25±1.11 10^9/L
same,γ-GT,"[2]; mouse, in vivo, 200 mg/kg",2.75±0.81 U/L
same,outcome of ZIKV-infected mice after oral administration,ZIKV,did not improve the outcome; also recorded: only weakly antagonizes
same,amount of ZIKV NS3 protein,"ZIKV (ZG-01); SNB19 cell lysates, time-dependent",decreased
same,ZIKV NS5 and E proteins,"ZIKV (ZG-01); SNB19 cells, MOI 1.0 and 2.0",decreased
same,No Observed Adverse Effect Level (NOAEL),[3],62.5 mg/kg
same,CC50 at 48 h,in vitro,126 ± 10.3 µM
same,absorption through the gastrointestinal tract,[4],minimally absorbed
same,plasma concentration,[4],nanogram-per-milliliter scale
